Measurements taken from ChEMBL document CHEMBL1133417, “N-[[1-(2-phenylethyl)pyrrolidin-2-yl]methyl]cyclohexanecarboxamides as selective 5-HT1A receptor agonists” (Bioorg Med Chem Lett, 2000).

Columns and labels:
[1] = molecular target: T1, Serotonin 2 (5-HT2) receptor (Rattus norvegicus, UniProt P30994+P08909+P14842); assay: Inhibitory concentration against 5-hydroxytryptamine 2 receptor from striata of male Wistar rats by displacement of [3H]-ketanserin; type: protein assay
[2] = molecular target: T2, 5-hydroxytryptamine receptor 1A (Rattus norvegicus, UniProt P19327); assay: Displacement of [3H]8-OH-DPAT from rat striata 5-hydroxytryptamine 1A receptor
T2 sequence (P19327 whole entry): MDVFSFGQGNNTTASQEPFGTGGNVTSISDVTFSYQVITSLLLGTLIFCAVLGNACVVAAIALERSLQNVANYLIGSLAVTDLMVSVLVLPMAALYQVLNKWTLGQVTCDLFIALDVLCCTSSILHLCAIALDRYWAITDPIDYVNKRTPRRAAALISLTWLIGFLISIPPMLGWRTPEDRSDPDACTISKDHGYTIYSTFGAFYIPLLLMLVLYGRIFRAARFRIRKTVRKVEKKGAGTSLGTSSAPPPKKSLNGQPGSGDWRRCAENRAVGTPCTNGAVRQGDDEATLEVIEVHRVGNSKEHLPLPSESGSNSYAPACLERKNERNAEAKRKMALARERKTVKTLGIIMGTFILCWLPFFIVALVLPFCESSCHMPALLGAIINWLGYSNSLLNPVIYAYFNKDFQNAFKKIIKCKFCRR

[3] = molecular target: T1, Serotonin 2 (5-HT2) receptor; assay: Binding affinity for 5-hydroxytryptamine 2 receptor from striata of male Wistar rats by displacement of [3H]ketanserin; type: protein assay
[4] = molecular target: T3, D(2) dopamine receptor (Homo sapiens, UniProt P14416); assay: Inhibitory concentration against binding of Dopamine receptor D2 by displacement of [3H]spiperone
T3 sequence (P14416 whole entry): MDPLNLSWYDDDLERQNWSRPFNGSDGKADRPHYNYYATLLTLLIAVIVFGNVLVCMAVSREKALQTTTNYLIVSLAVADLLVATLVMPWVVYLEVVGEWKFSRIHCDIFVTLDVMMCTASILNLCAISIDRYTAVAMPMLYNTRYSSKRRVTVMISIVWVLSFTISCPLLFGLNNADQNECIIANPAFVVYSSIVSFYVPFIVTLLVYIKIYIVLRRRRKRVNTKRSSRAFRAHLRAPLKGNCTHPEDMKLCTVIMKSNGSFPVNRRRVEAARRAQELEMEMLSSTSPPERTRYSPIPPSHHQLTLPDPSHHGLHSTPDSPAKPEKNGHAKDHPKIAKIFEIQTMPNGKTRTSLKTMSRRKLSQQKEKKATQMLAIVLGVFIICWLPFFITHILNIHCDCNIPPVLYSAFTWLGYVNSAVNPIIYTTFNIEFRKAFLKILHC

[5] = molecular target: T1, Serotonin 2 (5-HT2) receptor; assay: Inhibitory concentration against binding of 5-hydroxytryptamine 2 receptor from striata of male Wistar rats by displacement of [3H]-ketanserin; type: protein assay
[6] = molecular target: T3, D(2) dopamine receptor; assay: Binding affinity for Dopamine receptor D2 by displacement of [3H]-spiperone
[7] = molecular target: T2, 5-hydroxytryptamine receptor 1A; assay: Inhibitory concentration against binding of 5-hydroxytryptamine 1A receptor from striata of male Wistar rats by displacement of [3H]8-OH-DPAT

| Compound | Ki [2] | Ki [3] | IC50 [4] | Ki [6] | further results |
| --- | --- | --- | --- | --- | --- |
| CCCN(CCC)C1CCc2cccc(O)c2C1 (stereo unspecified) [8-OH-DPAT] | – | – | – | – | IC50 [1]: > 1000 nM l-1 |
| O=C(NC[C@@H]1CCCN1CCc1ccccc1)C1CCCCC1 | 0.00049 µM | 240 nM l-1 | > 1 µM | – | – |
| CN1CCOc2c(C(=O)NC[C@H]3CCCN3CCc3ccccc3)cc(Cl)cc21 | – | – | – | – | IC50 [5]: > 1000 nM l-1 |
| COc1cc2c(c(C(=O)NC[C@@H]3CCCN3CCc3ccccc3)c1)OCC2 | 0.021 µM | 660 nM l-1 | – | 0.12 µM | – |
| COc1ccc(SC)cc1C(=O)NC[C@@H]1CCCN1CCc1ccccc1 | 0.024 µM | 170 nM l-1 | – | 0.46 µM | – |
| CCCCN1CCC[C@@H]1CNC(=O)c1cc(Cl)cc2c1OCCN2C | – | – | – | 0.63 µM | Ki ([3]; read-out: Ki): 0.086 µM |
| O=C(NC[C@H]1CCCN1CCc1ccccc1)c1ccccc1 | – | – | > 1 µM | – | IC50 [7]: > 1 µM; IC50 [1]: > 1000 nM l-1 |
| O=C(c1ccc(F)cc1)C1CCN(CCn2c(=O)[nH]c3ccccc3c2=O)CC1 [KETANSERIN] | – | – | – | 0.24 µM | IC50 [7]: > 1 µM |
| CSc1cccc(C(=O)NC[C@H]2CCCN2CCc2ccccc2)c1 | 0.11 µM | – | > 1 µM | – | IC50 [5]: > 1000 nM l-1 |
| O=C(NC[C@H]1CCCN1CCc1ccccc1)C1CCCCC1 | 0.19 µM | – | > 1 µM | – | IC50 [1]: > 1000 nM l-1 |
| O=C(NC[C@@H]1CCCN1CCc1ccccc1)c1ccccc1 | 0.0046 µM | 430 nM l-1 | > 1 µM | – | – |
| CN1CCOc2c(C(=O)NC[C@@H]3CCCN3CCc3ccccc3)cc(Cl)cc21 | – | – | – | – | Ki ([3]; read-out: Ki): 0.28 µM |
| CSc1cccc(C(=O)NC[C@@H]2CCCN2CCc2ccccc2)c1 | 0.0043 µM | 160 nM l-1 | > 1 µM | – | – |
| CCCCN1CCC[C@H]1CNC(=O)c1cc(Cl)cc2c1OCCN2C | – | – | – | 0.012 µM | Ki ([3]; read-out: Ki): 0.3 µM |
| CSc1cc2c(c(C(=O)NC[C@H]3CCCN3CCc3ccccc3)c1)OCC2 | 0.1 µM | 430 nM l-1 | – | 0.0067 µM | – |
